Assay results: BindingDB's records for doi:10.1016/j.bmcl.2008.10.104 (Taisho Pharmaceutical, 2008)
Residues, ends and D or L forms follow the SMILES beside them.

Tests used:
[1] = biological target: Sodium- and chloride-dependent glycine transporter 2 (Rattus norvegicus) (UniProt P58295); assay: Inhibition of [3H]glycine uptake at rat glycine transporter 2 expressed in african green monkey COS7 cells
[2] = biological target: Sodium- and chloride-dependent glycine transporter 1 (Rattus norvegicus); assay: Inhibition of [3H]glycine uptake at rat glycine transporter 1 expressed in african green monkey COS7 cells

Sodium- and chloride-dependent glycine transporter 2 (Rattus norvegicus), sequence (P58295 whole entry, looked up): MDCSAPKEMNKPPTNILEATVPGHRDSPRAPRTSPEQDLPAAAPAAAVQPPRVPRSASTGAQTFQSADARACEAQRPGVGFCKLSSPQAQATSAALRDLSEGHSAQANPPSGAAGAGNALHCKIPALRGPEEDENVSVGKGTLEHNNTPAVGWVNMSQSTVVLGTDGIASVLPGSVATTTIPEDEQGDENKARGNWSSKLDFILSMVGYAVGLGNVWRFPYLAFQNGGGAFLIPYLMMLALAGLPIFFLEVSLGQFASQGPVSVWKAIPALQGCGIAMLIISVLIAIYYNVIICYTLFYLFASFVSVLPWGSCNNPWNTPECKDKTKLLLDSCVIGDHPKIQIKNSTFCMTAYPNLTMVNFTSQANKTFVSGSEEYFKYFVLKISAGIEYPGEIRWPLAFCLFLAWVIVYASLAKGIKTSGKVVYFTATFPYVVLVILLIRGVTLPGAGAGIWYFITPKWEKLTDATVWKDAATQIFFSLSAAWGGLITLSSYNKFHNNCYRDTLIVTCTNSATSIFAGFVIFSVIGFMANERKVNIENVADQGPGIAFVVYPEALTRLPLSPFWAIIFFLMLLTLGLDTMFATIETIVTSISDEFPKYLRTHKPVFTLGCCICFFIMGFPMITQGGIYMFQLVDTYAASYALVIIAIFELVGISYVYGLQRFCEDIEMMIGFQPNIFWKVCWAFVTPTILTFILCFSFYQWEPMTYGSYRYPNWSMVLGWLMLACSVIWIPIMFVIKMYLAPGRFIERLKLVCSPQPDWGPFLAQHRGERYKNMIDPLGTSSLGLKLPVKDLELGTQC

Row | IC50 [1] [nM] | IC50 [2] [nM] | SMILES
1 | 450 |  | CC[C@H](C)[C@@H]1NC(=O)[C@H](C(C)C)NC(=O)[C@H](Cc2ccccc2)NC(=O)[C@H]([C@H](C)[C@@H](C)O)NC1=O [(3S,6S,9S,12S)-3-benzyl-9-sec-butyl-6-((2S,3R)-3-hydroxybutan-2-yl)-12-isopropyl-1,4,7,10-tetraazacyclododecane-2,5,8,11-tetraone]
2 | 21.1 |  | N[C@@H](COC(c1cccc(F)c1)c1ccccc1OCc1ccccc1)C(=O)O (stereo partly drawn) [(2S)-2-amino-3-((2-(benzyloxy)phenyl)(3-fluorophenyl)methoxy)propanoic acid]
3 | 542 | 11.1 | CC(C)[C@@H]1NC(=O)[C@H](Cc2ccccc2)NC(=O)[C@H]([C@H](C)[C@@H](C)O)NC(=O)[C@H](C(C)C)NC1=O [(3S,6S,9S,12S)-3-benzyl-6-((2S,3R)-3-hydroxybutan-2-yl)-9,12-diisopropyl-1,4,7,10-tetraazacyclododecane-2,5,8,11-tetraone]
4 | 2260 | 20.4 | CC[C@H](C)[C@@H]1NC(=O)[C@H](Cc2ccccc2)NC(=O)[C@H]([C@H](CS(=O)(=O)O)C(C)=O)NC(=O)[C@H]([C@@H](C)CC)NC1=O [(S)-2-((2S,5S,8S,11S)-5-benzyl-8,11-di-sec-butyl-3,6,9,12-tetraoxo-1,4,7,10-tetraazacyclododecan-2-yl)-3-oxobutane-1-sulfonic acid]
5 | 226 |  | CC[C@H](C)[C@@H]1NC(=O)[C@H](Cc2ccccc2)NC(=O)[C@H]([C@@H](C)CC)NC(=O)[C@H]([C@@H](C)CC)NC1=O [(3S,6S,9S,12S)-3-benzyl-6,9,12-tri-sec-butyl-1,4,7,10-tetraazacyclododecane-2,5,8,11-tetraone] (cyclo(FIII))
6 | 278 | 3 | CC[C@H](C)[C@@H]1NC(=O)[C@H](Cc2ccccc2)NC(=O)[C@H]([C@H](C)[C@@H](C)O)NC(=O)[C@H]([C@@H](C)CC)NC1=O [(3S,6S,9S,12S)-3-benzyl-9,12-di-sec-butyl-6-((2S,3R)-3-hydroxybutan-2-yl)-1,4,7,10-tetraazacyclododecane-2,5,8,11-tetraone]
7 | 574 | 10.2 | CC[C@H](C)[C@@H]1NC(=O)[C@H](Cc2ccccc2)NC(=O)[C@H]([C@H](C)[C@@H](C)O)NC(=O)[C@H](C(C)C)NC1=O [(3S,6S,9S,12S)-3-benzyl-12-sec-butyl-6-((2S,3R)-3-hydroxybutan-2-yl)-9-isopropyl-1,4,7,10-tetraazacyclododecane-2,5,8,11-tetraone]
